{"source": "patent US4443436A", "about": "“C-20-Modified macrolide derivatives of the macrolide antibiotics tylosin, desmycosin, macrocin, and lactenocin” (Eli Lilly and Company, priority 1982, dated 1984)", "key": {"[1]": {"test_system": "Staphylococcus epidermidis EPI1", "assay": "MIC, standard agar-dilution assay, Staphylococcus epidermidis EPI1", "type": "cell-based"}, "[2]": {"test_system": "Haemophilus influenzae R252", "assay": "MIC, standard agar-dilution assay, Haemophilus influenzae R252", "type": "cell-based", "settings": "Haemophilus influenzae R252, ampicillin-resistant strain"}, "[3]": {"test_system": "Staphylococcus aureus X1.1", "assay": "MIC, standard agar-dilution assay, Staphylococcus aureus X1.1", "type": "cell-based"}, "[4]": {"test_system": "Staphylococcus epidermidis EPI2", "assay": "MIC, standard agar-dilution assay, Staphylococcus epidermidis EPI2", "type": "cell-based"}, "[5]": {"test_system": "Pasteurella multocida 60A", "assay": "MIC, broth-dilution microtiter test, Pasteurella multocida 60A", "type": "cell-based", "source_text": "(§1) The MIC's in Table X were obtained using conventional broth-dilution microtiter tests."}, "[6]": {"test_system": "Pasteurella hemolytica 22C", "assay": "MIC, broth-dilution microtiter test, Pasteurella hemolytica 22C", "type": "cell-based", "settings": "Pasteurella hemolytica 22C, broth-dilution microtiter", "source_text": "as §1"}, "[7]": {"test_system": "Streptococcus Group D X66", "assay": "MIC, standard agar-dilution assay, Streptococcus Group D X66", "type": "cell-based"}, "Staphylococcus aureus": {"test_system": "Staphylococcus aureus", "assay": "MIC, broth-dilution microtiter test, Staphylococcus aureus", "type": "cell-based", "settings": "broth-dilution microtiter", "source_text": "as §1"}, "[8]": {"test_system": "Staphylococcus aureus S13E", "assay": "MIC, standard agar-dilution assay, Staphylococcus aureus S13E", "type": "cell-based"}, "Mycoplasma gallisepticum": {"test_system": "Mycoplasma gallisepticum", "assay": "MIC, broth-dilution microtiter test, Mycoplasma gallisepticum", "type": "cell-based", "settings": "Mycoplasma gallisepticum, broth-dilution microtiter", "source_text": "as §1"}, "[9]": {"test_system": "Haemophilus influenzae Holt", "assay": "MIC, standard agar-dilution assay, Haemophilus influenzae Holt", "type": "cell-based"}, "Mycoplasma hyorhinis": {"test_system": "Mycoplasma hyorhinis", "assay": "MIC, broth-dilution microtiter test, Mycoplasma hyorhinis", "type": "cell-based", "source_text": "as §1"}, "[10]": {"test_system": "Pasteurella multocida 17E", "assay": "MIC, broth-dilution microtiter test, Pasteurella multocida 17E", "type": "cell-based", "settings": "Pasteurella multocida 17E, bovine isolate, broth-dilution microtiter", "source_text": "as §1"}, "[11]": {"test_system": "Streptococcus pneumoniae Park I", "assay": "microbe, parasite or virus in culture", "type": "cell-based"}, "Streptococcus bovis 80": {"test_system": "Streptococcus bovis 80", "assay": "MIC, broth-dilution microtiter test, Streptococcus bovis 80", "type": "cell-based", "settings": "Streptococcus bovis 80, broth-dilution microtiter", "source_text": "as §1"}, "[12]": {"test_system": "Staphylococcus aureus V41", "assay": "MIC, standard agar-dilution assay, Staphylococcus aureus V41", "type": "cell-based"}, "[13]": {"test_system": "Staphylococcus aureus X400", "assay": "MIC, standard agar-dilution assay, Staphylococcus aureus X400", "type": "cell-based"}, "Streptococcus Group 9960": {"test_system": "Streptococcus Group 9960", "assay": "MIC, standard agar-dilution assay, Streptococcus Group 9960", "type": "cell-based", "settings": "Streptococcus Group 9960, agar dilution"}, "[14]": {"test_system": "Streptococcus pyogenes C203", "assay": "MIC, standard agar-dilution assay, Streptococcus pyogenes C203", "type": "cell-based"}, "Mycoplasma synoviae": {"test_system": "Mycoplasma synoviae", "assay": "MIC, broth-dilution microtiter test, Mycoplasma synoviae", "type": "cell-based", "settings": "Mycoplasma synoviae, broth-dilution microtiter", "source_text": "as §1"}, "[15]": {"test_system": "Streptococcus pyogenes C203", "assay": "In vivo protection of mice experimentally infected with S. pyogenes C203", "settings": "mice, doses given 1 and 4 hours post-infection", "protocol": "The C-20 modified derivatives of this invention have shown in vivo antimicrobial activity against experimentally-induced infections in laboratory animals. When two doses of test compound were administered to mice experimentally infected with S. pyogenes C203, the activity observed was measured as an ED50 value [effective dose in mg/kg to protect 50% of the test animals: see Warren Wick, et al., J. Bacteriol. 81, 233-235 (1961)]."}, "[16]": {"settings": "Staphylococcus epidermidis, EPI1"}, "[17]": {"settings": "Staphylococcus epidermidis, EPI2"}, "[18]": {"settings": "Mycoplasmoides gallisepticum, read-out: MIC"}, "[19]": {"settings": "Streptococcus equinus, read-out: MIC"}, "[20]": {"settings": "Mycoplasmopsis synoviae, read-out: MIC"}}, "note": "Where two headings read alike, the source gives them in different places.", "data": [{"smiles": "CCC1OC(=O)CC(O)C(C)C(OC2OC(C)C(OC3CC(C)(O)C(O)C(C)O3)C(N(C)C)C2O)C(CCOC(=O)COc2ccccc2)CC(C)C(=O)C=CC(C)=CC1COC1OC(C)C(O)C(OC)C1OC", "note": "(centres unmarked) [Compound 11, 20-DH-20-O-(Phenoxyacetyl)tylosin]", "values": [{"measurement": "MIC", "setting": "[1]; [16]", "value": 0.5, "unit": "µg/mL"}, {"measurement": "MIC", "setting": "[2]; read-out: MIC", "value": "> 128", "unit": "µg/mL"}, {"measurement": "MIC", "setting": "[3]; Staphylococcus aureus, X1.1", "value": 0.5, "unit": "µg/mL"}, {"measurement": "MIC", "setting": "[4]; [17]", "value": 0.5, "unit": "µg/mL"}, {"measurement": "MIC", "setting": "[5]; Pasteurella multocida 60A, avian isolate, broth-dilution microtiter, read-out: MIC", "value": "> 50", "unit": "µg/mL"}, {"measurement": "MIC", "setting": "[6]; read-out: MIC", "value": "> 50", "unit": "µg/mL"}, {"measurement": "MIC", "setting": "[7]", "value": 8, "unit": "µg/mL"}, {"measurement": "MIC", "setting": "Staphylococcus aureus; read-out: MIC", "value": 1.56, "unit": "µg/mL"}, {"measurement": "MIC", "setting": "[8]; Staphylococcus aureus, S13E", "value": 0.5, "unit": "µg/mL"}, {"measurement": "MIC", "setting": "Mycoplasma gallisepticum; [18]", "value": 1.56, "unit": "µg/mL"}, {"measurement": "MIC", "setting": "[9]; Haemophilus influenzae", "value": "> 128", "unit": "µg/mL"}, {"measurement": "MIC", "setting": "Mycoplasma hyorhinis; Mycoplasma hyorhinis, broth-dilution microtiter, read-out: MIC", "value": "> 50", "unit": "µg/mL"}, {"measurement": "MIC", "setting": "[10]; read-out: MIC", "value": "> 50", "unit": "µg/mL"}, {"measurement": "MIC", "setting": "[11]; Streptococcus pneumoniae", "value": 0.5, "unit": "µg/mL"}, {"measurement": "MIC", "setting": "Streptococcus bovis 80; [19]", "value": 3.12, "unit": "µg/mL"}, {"measurement": "MIC", "setting": "[12]; Staphylococcus aureus, V41", "value": 0.5, "unit": "µg/mL"}, {"measurement": "MIC", "setting": "[13]; Staphylococcus aureus, X400", "value": 1, "unit": "µg/mL"}, {"measurement": "MIC", "setting": "Streptococcus Group 9960; GROUP9960, read-out: MIC", "value": 8, "unit": "µg/mL"}, {"measurement": "MIC", "setting": "[14]; Streptococcus pyogenes, C203", "value": 0.5, "unit": "µg/mL"}, {"measurement": "MIC", "setting": "Mycoplasma synoviae; [20]", "value": 3.12, "unit": "µg/mL"}]}, {"smiles": "CCC1OC(=O)CC(O)C(C)C(OC2OC(C)C(O)C(N(C)C)C2O)C(CCO[N+](=O)[O-])CC(C)C(=O)C=CC(C)=CC1COC1OC(C)C(O)C(OC)C1OC", "note": "(centres unmarked) [Compound 28, 20-DH-20-O-NO2-desmycosin]", "values": [{"measurement": "MIC", "setting": "[1]; [16]", "value": 0.25, "unit": "µg/mL"}, {"measurement": "MIC", "setting": "[2]; read-out: MIC", "value": 16, "unit": "µg/mL"}, {"measurement": "MIC", "setting": "[3]; Staphylococcus aureus, X1.1", "value": 0.25, "unit": "µg/mL"}, {"measurement": "MIC", "setting": "[4]; [17]", "value": 0.25, "unit": "µg/mL"}, {"measurement": "MIC", "setting": "[5]; Pasteurella multocida, 60A", "value": 50, "unit": "µg/mL"}, {"measurement": "MIC", "setting": "[6]; read-out: MIC", "value": 25, "unit": "µg/mL"}, {"measurement": "MIC", "setting": "[7]; Streptococcus Group D X66, agar dilution, read-out: MIC", "value": 8, "unit": "µg/mL"}, {"measurement": "MIC", "setting": "Staphylococcus aureus; read-out: MIC", "value": 1.56, "unit": "µg/mL"}, {"measurement": "MIC", "setting": "[8]; Staphylococcus aureus, S13E", "value": 0.25, "unit": "µg/mL"}, {"measurement": "MIC", "setting": "Mycoplasma gallisepticum; [18]", "value": 0.78, "unit": "µg/mL"}, {"measurement": "MIC", "setting": "[9]; Haemophilus influenzae Holt, ampicillin-sensitive strain, read-out: MIC", "value": 16, "unit": "µg/mL"}, {"measurement": "MIC", "setting": "Mycoplasma hyorhinis; Mycoplasma", "value": 50, "unit": "µg/mL"}, {"measurement": "MIC", "setting": "[10]; read-out: MIC", "value": 25, "unit": "µg/mL"}, {"measurement": "MIC", "setting": "[11]; Streptococcus pneumoniae Park I, agar dilution, read-out: MIC", "value": 2, "unit": "µg/mL"}, {"measurement": "MIC", "setting": "Streptococcus bovis 80; [19]", "value": 12.5, "unit": "µg/mL"}, {"measurement": "MIC", "setting": "[12]; Staphylococcus aureus, V41", "value": 0.25, "unit": "µg/mL"}, {"measurement": "MIC", "setting": "[13]; Staphylococcus aureus, X400", "value": 0.25, "unit": "µg/mL"}, {"measurement": "MIC", "setting": "Streptococcus Group 9960; GROUP9960, read-out: MIC", "value": 8, "unit": "µg/mL"}, {"measurement": "MIC", "setting": "[14]; Streptococcus pyogenes, C203", "value": 0.25, "unit": "µg/mL"}, {"measurement": "MIC", "setting": "Mycoplasma synoviae; [20]", "value": 0.78, "unit": "µg/mL"}]}, {"smiles": "CCC1OC(=O)CC(O)C(C)C(OC2OC(C)C(O)C(N(C)C)C2O)C(CCOc2nnc(-c3ccccc3)c(-c3ccccc3)n2)CC(C)C(=O)C=CC(C)=CC1COC1OC(C)C(O)C(OC)C1OC", "note": "(centres unmarked) [Compound 50, 20-DH-20-O-(5,6-Diphenyl-1,2,4-triazin-3-yl)desmycosin]", "values": [{"measurement": "ED50, Oral", "setting": "[15]; oral", "value": "> 50", "unit": "mg/kg × 2"}, {"measurement": "ED50, Subcutaneous", "setting": "[15]; subcutaneous", "value": "> 10", "unit": "mg/kg × 2"}, {"measurement": "MIC", "setting": "[1]; Staphylococcus epidermidis EPI1, agar dilution", "value": 0.5, "unit": "µg/mL"}, {"measurement": "MIC", "setting": "[2]; agar dilution", "value": 64, "unit": "µg/mL"}, {"measurement": "MIC", "setting": "[3]; Staphylococcus aureus X1.1, agar dilution", "value": 0.5, "unit": "µg/mL"}, {"measurement": "MIC", "setting": "[4]; Staphylococcus epidermidis EPI2, agar dilution", "value": 0.5, "unit": "µg/mL"}, {"measurement": "MIC", "setting": "[5]; Pasteurella multocida 60A, avian isolate, broth-dilution microtiter", "value": 25, "unit": "µg/mL"}, {"measurement": "MIC", "setting": "[6]", "value": "-- (Not active at 50 mcg/ml, the highest level tested)"}, {"measurement": "MIC", "setting": "[7]; Streptococcus Group D X66, agar dilution", "value": 4, "unit": "µg/mL"}, {"measurement": "MIC", "setting": "Staphylococcus aureus", "value": 1.56, "unit": "µg/mL"}, {"measurement": "MIC", "setting": "[8]; Staphylococcus aureus S13E, agar dilution", "value": 0.5, "unit": "µg/mL"}, {"measurement": "MIC", "setting": "Mycoplasma gallisepticum", "value": "≤ 0.048", "unit": "µg/mL"}, {"measurement": "MIC", "setting": "[9]; Haemophilus influenzae Holt, ampicillin-sensitive strain, agar dilution", "value": 64, "unit": "µg/mL"}, {"measurement": "MIC", "setting": "Mycoplasma hyorhinis; Mycoplasma hyorhinis, broth-dilution microtiter", "value": 12.5, "unit": "µg/mL"}, {"measurement": "MIC", "setting": "[10]", "value": 25, "unit": "µg/mL"}, {"measurement": "MIC", "setting": "[11]; Streptococcus pneumoniae Park I, agar dilution", "value": 0.5, "unit": "µg/mL"}, {"measurement": "MIC", "setting": "Streptococcus bovis 80", "value": 3.12, "unit": "µg/mL"}, {"measurement": "MIC", "setting": "[12]; Staphylococcus aureus V41, penicillin-resistant strain, agar dilution", "value": 0.5, "unit": "µg/mL"}, {"measurement": "MIC", "setting": "[13]; Staphylococcus aureus X400, methicillin-resistant strain, agar dilution", "value": 1, "unit": "µg/mL"}, {"measurement": "MIC", "setting": "Streptococcus Group 9960", "value": 4, "unit": "µg/mL"}, {"measurement": "MIC", "setting": "[14]; Streptococcus pyogenes C203, agar dilution", "value": 0.5, "unit": "µg/mL"}, {"measurement": "MIC", "setting": "Mycoplasma synoviae", "value": 0.39, "unit": "µg/mL"}]}]}
